{"source": "patent US11572590B2", "about": "“Methods for evaluating tumor cell spheroids using 3D microfluidic cell culture device” (Dana-Farber Cancer Institute, Inc., priority 2017, dated 2023)", "experiment_in_all_cases": "SelectScreen Kinase Profiling, single point inhibition and IC50 for off-target kinases", "type_in_all_cases": "biochemical", "key": {"[1]": {"target": "off-target kinases (Homo sapiens, UniProt P48729)", "sequence (P48729 whole entry)": "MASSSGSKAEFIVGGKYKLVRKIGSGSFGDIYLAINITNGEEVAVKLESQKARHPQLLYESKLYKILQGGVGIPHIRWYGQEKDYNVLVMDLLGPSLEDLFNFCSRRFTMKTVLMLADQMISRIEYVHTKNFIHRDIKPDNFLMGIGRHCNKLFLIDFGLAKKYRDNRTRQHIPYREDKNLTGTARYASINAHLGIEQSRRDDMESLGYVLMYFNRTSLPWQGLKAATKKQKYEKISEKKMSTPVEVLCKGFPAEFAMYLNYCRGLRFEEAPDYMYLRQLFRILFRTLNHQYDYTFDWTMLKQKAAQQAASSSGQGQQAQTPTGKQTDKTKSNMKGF", "conditions": "CSNK1A1 (CK1 alpha 1), ZLYTE, ATP Km app"}, "[2]": {"target": "T1, off-target kinases (Homo sapiens, UniProt Q16566)", "T1 sequence (Q16566 1-473)": "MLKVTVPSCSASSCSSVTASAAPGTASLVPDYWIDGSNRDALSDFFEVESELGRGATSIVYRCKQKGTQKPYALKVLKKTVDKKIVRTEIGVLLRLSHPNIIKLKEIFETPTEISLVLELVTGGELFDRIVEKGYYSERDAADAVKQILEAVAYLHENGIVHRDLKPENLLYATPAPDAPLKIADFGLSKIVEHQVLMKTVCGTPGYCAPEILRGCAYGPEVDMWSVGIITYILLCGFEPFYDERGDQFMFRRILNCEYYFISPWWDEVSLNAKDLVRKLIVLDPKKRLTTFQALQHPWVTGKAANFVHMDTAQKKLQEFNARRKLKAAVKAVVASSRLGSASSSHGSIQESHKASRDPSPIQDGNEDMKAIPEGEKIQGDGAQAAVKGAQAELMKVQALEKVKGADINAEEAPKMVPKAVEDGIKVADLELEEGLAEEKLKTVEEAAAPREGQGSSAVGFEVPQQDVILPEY"}, "[3]": {"target": "off-target kinases (Homo sapiens, UniProt Q16288)", "sequence (Q16288 32-839)": "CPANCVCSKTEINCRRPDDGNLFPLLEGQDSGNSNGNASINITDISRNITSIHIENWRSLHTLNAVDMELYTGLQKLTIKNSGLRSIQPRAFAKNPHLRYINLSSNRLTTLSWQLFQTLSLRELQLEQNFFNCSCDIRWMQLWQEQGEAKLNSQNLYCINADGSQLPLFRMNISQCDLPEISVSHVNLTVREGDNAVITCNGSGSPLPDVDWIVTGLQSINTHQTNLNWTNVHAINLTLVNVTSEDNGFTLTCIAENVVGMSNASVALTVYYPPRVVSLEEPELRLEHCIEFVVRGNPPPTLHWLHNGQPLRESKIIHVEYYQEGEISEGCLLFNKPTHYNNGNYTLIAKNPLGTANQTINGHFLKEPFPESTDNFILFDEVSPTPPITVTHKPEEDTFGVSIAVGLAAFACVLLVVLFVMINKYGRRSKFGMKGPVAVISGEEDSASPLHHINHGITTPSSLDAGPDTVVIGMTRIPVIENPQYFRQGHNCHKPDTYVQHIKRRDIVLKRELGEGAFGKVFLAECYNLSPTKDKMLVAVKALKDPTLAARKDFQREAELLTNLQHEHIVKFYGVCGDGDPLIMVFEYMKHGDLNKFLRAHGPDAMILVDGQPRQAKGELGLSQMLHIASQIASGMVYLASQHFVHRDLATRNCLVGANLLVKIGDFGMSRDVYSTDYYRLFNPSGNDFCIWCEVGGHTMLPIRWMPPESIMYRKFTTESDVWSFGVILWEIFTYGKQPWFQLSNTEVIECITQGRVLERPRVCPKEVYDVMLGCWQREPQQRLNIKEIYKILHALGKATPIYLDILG", "conditions": "NTRK3 (TRKC), ZLYTE, ATP Km app"}, "[4]": {"target": "T2, off-target kinases (Homo sapiens, UniProt O14757)", "T2 sequence (O14757 1-476)": "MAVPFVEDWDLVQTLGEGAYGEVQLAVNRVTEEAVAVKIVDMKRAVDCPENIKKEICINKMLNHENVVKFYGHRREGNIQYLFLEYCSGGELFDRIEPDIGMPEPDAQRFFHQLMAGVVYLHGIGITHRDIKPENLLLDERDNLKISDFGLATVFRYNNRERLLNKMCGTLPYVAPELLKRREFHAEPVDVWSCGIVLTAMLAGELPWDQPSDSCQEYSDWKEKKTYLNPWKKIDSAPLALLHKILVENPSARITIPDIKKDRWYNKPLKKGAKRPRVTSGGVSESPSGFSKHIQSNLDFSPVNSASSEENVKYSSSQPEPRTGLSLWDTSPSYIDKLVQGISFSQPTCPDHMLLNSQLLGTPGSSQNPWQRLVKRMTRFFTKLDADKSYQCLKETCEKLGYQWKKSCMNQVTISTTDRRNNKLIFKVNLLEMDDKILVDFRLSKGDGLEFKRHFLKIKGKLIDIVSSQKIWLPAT", "conditions": "CHEK1 (CHK1), ATP Km app, ZLYTE"}, "[5]": {"target": "off-target kinases (Homo sapiens, UniProt P10721, D816H)", "sequence (P10721 26-976 D816H)": "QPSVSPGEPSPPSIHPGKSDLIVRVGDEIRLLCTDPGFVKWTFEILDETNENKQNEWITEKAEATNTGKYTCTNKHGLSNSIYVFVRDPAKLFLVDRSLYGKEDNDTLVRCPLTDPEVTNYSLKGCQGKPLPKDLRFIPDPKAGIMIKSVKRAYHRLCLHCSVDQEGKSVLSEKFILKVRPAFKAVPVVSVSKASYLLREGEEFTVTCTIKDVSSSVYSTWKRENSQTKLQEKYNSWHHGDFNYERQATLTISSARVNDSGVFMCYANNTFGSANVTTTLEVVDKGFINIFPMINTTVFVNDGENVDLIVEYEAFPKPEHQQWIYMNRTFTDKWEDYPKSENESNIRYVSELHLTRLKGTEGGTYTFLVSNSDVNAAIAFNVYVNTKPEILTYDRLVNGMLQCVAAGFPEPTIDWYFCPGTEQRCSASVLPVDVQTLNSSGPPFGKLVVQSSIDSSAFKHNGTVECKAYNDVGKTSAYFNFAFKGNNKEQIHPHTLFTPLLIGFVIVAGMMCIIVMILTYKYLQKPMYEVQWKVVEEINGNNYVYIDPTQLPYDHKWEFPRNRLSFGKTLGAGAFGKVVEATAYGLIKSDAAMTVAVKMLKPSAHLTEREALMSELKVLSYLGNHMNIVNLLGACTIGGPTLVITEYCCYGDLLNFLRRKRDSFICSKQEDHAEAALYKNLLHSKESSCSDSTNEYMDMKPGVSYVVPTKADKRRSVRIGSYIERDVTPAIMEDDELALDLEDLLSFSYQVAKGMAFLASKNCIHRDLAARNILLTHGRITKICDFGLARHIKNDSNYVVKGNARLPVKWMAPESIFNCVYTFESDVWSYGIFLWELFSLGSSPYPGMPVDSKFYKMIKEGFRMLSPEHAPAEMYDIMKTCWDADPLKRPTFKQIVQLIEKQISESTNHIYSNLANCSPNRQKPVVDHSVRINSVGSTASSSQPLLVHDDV", "conditions": "KIT D816H, LanthaScreen Binding"}, "[6]": {"target": "off-target kinases (Homo sapiens, UniProt Q9UM73)", "sequence (Q9UM73 19-1620)": "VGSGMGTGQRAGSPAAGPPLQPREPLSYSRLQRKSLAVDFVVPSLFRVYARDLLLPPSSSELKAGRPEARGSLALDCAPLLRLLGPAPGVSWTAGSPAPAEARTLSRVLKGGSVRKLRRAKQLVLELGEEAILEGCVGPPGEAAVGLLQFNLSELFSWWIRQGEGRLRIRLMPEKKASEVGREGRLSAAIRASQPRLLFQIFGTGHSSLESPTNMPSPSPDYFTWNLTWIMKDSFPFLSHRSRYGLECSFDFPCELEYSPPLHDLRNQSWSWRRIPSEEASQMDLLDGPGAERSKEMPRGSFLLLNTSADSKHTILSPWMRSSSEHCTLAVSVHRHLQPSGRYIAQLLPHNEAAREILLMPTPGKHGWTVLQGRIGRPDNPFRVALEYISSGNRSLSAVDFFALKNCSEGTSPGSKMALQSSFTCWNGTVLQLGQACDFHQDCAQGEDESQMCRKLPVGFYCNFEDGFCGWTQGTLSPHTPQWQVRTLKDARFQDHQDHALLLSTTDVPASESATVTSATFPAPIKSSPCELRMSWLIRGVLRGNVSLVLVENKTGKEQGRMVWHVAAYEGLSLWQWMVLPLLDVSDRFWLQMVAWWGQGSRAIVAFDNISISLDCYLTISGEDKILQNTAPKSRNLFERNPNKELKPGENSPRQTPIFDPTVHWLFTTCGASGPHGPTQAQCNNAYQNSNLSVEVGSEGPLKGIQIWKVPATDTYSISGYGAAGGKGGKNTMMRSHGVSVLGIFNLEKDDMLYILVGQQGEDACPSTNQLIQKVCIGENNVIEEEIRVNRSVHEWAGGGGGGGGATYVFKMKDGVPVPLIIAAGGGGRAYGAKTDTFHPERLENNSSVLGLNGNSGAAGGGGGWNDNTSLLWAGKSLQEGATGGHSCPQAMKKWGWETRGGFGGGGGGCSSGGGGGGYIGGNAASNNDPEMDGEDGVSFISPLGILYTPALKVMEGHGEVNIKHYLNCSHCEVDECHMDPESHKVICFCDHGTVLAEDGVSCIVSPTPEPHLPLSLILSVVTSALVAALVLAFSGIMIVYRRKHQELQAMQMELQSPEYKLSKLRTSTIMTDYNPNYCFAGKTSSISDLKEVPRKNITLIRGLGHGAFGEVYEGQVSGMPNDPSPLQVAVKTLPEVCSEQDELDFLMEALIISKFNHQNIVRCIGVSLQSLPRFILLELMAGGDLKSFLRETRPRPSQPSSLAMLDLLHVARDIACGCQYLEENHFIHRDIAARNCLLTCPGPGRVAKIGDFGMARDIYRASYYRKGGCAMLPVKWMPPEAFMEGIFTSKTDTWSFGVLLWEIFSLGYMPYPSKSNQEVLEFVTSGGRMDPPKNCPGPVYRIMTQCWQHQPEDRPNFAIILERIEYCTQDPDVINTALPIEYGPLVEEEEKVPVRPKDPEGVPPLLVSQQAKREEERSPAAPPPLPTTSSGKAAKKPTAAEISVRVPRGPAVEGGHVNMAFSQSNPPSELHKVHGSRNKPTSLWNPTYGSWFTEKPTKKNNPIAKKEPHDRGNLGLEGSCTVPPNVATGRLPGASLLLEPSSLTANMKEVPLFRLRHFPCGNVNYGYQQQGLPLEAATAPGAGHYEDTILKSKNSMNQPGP", "conditions": "ALK, ZLYTE, ATP Km app"}, "[7]": {"target": "off-target kinases (Homo sapiens, UniProt P53667)", "sequence (P53667 whole entry)": "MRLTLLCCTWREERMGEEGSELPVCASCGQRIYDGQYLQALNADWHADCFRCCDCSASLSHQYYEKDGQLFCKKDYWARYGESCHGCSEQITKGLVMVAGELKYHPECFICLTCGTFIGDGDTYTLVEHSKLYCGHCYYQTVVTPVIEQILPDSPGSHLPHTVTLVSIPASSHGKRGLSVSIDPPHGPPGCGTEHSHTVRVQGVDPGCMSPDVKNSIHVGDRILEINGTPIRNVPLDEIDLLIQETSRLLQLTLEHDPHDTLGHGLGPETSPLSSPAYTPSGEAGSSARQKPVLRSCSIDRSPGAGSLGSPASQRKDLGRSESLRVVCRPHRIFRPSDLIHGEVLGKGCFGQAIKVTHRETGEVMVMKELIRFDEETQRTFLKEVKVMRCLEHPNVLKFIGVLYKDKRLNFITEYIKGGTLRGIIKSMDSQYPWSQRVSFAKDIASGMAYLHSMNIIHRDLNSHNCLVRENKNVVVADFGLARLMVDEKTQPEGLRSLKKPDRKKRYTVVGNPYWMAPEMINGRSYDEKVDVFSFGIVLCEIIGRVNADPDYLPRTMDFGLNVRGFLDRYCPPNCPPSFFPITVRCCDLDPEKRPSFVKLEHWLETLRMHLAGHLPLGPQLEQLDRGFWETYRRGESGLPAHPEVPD", "conditions": "LIMK1, LanthaScreen Binding"}, "[8]": {"target": "off-target kinases (Homo sapiens, UniProt Q9P286)", "sequence (Q9P286 whole entry)": "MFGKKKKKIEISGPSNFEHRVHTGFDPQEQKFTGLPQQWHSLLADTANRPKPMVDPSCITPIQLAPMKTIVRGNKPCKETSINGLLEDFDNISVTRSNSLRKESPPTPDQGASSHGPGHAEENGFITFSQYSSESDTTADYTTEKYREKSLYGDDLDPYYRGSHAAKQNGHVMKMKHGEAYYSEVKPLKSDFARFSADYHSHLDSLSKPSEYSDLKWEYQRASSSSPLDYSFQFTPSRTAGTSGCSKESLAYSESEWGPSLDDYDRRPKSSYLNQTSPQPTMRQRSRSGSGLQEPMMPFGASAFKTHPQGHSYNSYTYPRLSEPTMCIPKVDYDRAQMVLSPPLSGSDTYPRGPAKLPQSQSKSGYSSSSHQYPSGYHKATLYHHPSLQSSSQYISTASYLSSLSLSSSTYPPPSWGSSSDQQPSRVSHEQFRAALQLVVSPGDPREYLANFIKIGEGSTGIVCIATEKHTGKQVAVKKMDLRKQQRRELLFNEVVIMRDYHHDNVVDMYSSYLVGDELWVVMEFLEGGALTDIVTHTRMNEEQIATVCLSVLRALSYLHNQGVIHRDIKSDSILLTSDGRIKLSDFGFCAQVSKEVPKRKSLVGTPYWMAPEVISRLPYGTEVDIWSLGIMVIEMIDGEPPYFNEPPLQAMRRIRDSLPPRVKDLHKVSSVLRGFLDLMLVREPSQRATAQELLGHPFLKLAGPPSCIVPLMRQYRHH", "conditions": "PAK7 (KIAA1264), ATP Km app, ZLYTE"}}, "note": "Where two headings read alike, the source gives them in different places.", "data": [{"smiles": "N#Cc1cc(-c2ncnc(Nc3ccc(N4CCN(C5COC5)CC4)cc3)n2)ccc1OC1CCOCC1", "note": "[Compound 1, 5-(4-((4-(4-(oxetan-3-yl)piperazin-1-yl)phenyl)amino)-1,3,5-triazin-2-yl)-2-((tetrahydro-2H-pyran-4-yl)oxy)benzonitrile]", "values": [{"measurement": "inhibition", "setting": "[1]; read-out: % Inhibition 1", "result": 2, "unit": "%"}, {"measurement": "inhibition", "setting": "[1]; read-out: % Inhibition 2", "result": 1, "unit": "%"}, {"measurement": "inhibition", "setting": "[1]; read-out: % Inhibition Avg", "result": 1, "unit": "%"}, {"measurement": "inhibition", "setting": "[2]; CAMK4 (CaMKIV), ZLYTE, ATP Km app, read-out: % Inhibition 2", "result": -2, "unit": "%"}, {"measurement": "inhibition", "setting": "[2]; CAMK4 (CaMKIV), ZLYTE, ATP Km app, read-out: % Inhibition Avg", "result": -2, "unit": "%"}, {"measurement": "inhibition", "setting": "[2]; read-out: % Inhibition 1", "result": -2, "unit": "%"}, {"measurement": "inhibition", "setting": "[3]; read-out: % Inhibition 1", "result": 17, "unit": "%"}, {"measurement": "inhibition", "setting": "[3]; read-out: % Inhibition 2", "result": 19, "unit": "%"}, {"measurement": "inhibition", "setting": "[3]; read-out: % Inhibition Avg", "result": 18, "unit": "%"}, {"measurement": "inhibition", "setting": "[4]; read-out: % Inhibition 1", "result": 78, "unit": "%"}, {"measurement": "inhibition", "setting": "[4]; read-out: % Inhibition 2", "result": 78, "unit": "%"}, {"measurement": "inhibition", "setting": "[4]; read-out: % Inhibition Avg", "result": 78, "unit": "%"}, {"measurement": "inhibition", "setting": "[5]; read-out: % Inhibition 1", "result": 90, "unit": "%"}, {"measurement": "inhibition", "setting": "[5]; read-out: % Inhibition 2", "result": 94, "unit": "%"}, {"measurement": "inhibition", "setting": "[5]; read-out: % Inhibition Avg", "result": 92, "unit": "%"}, {"measurement": "inhibition", "setting": "[6]; read-out: % Inhibition 1", "result": 4, "unit": "%"}, {"measurement": "inhibition", "setting": "[6]; read-out: % Inhibition 2", "result": -2, "unit": "%"}, {"measurement": "inhibition", "setting": "[6]; read-out: % Inhibition Avg", "result": 1, "unit": "%"}, {"measurement": "inhibition", "setting": "[7]; read-out: % Inhibition 1", "result": 40, "unit": "%"}, {"measurement": "inhibition", "setting": "[7]; read-out: % Inhibition 2", "result": 39, "unit": "%"}, {"measurement": "inhibition", "setting": "[7]; read-out: % Inhibition Avg", "result": 40, "unit": "%"}, {"measurement": "inhibition", "setting": "[8]; read-out: % Inhibition 1", "result": 77, "unit": "%"}, {"measurement": "inhibition", "setting": "[8]; read-out: % Inhibition 2", "result": 79, "unit": "%"}, {"measurement": "inhibition", "setting": "[8]; read-out: % Inhibition Avg", "result": 78, "unit": "%"}]}]}
